Laboratory results reported in publication PMC7347136 (PLoS ONE, 2020).

Key:
Experiment in all cases: Carna kinase panel screen
Type in all cases: biochemical
Details in all cases: read-out: % Inhibition ± SD
TTK = target: T1, TTK (Homo sapiens, UniProt P33981)
T1 construct: purchased Carna Biosciences
Procedure, shortened: (§1)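 IC50 determined by fitting percentage inhibition from a 10-point dilution series, run at ATP approximating Km, to a four-parameter logistic curve.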

PAK2 = target: T2, PAK2 (Homo sapiens, UniProt Q13177)
T2 construct: purchased Carna Biosciences
Procedure, shortened: as §1

CDK3 = target: T3, CDK3 (Homo sapiens, UniProt Q00526)
T3 construct: purchased Carna Biosciences
Procedure, shortened: as §1

PKR = target: T4, PKR (Homo sapiens, UniProt P19525)
T4 construct: purchased Carna Biosciences
T4 sequence (P19525 whole entry): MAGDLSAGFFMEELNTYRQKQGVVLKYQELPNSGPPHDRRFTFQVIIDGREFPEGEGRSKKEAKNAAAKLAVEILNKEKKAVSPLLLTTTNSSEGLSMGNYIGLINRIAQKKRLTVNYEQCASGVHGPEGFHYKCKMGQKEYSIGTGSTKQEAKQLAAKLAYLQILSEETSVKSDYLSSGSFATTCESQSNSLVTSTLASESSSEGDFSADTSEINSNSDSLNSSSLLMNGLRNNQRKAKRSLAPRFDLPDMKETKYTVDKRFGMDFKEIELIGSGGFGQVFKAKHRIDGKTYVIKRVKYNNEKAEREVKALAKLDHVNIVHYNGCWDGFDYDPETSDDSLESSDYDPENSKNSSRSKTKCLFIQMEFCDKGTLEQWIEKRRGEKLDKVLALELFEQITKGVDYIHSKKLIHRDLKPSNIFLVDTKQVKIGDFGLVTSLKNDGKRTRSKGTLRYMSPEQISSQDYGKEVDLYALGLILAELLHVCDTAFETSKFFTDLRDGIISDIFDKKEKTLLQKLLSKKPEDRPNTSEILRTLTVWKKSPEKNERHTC
Procedure, shortened: (§2)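 Values are IC50s, derived by four-parameter logistic regression of percentage inhibition against concentration. Each curve used 10 concentrations and ATP close to Km.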

EphA8 = target: T5, EphA8 (Homo sapiens, UniProt P29322)
T5 construct: purchased Carna Biosciences
Procedure, shortened: as §2

EphA1 = target: T6, EphA1 (Homo sapiens, UniProt P21709)
T6 construct: purchased Carna Biosciences
Procedure, shortened: as §1

PKCb2 = target: T7, PKCb2 (Homo sapiens, UniProt P05771)
T7 construct: purchased Carna Biosciences
Procedure, shortened: as §1

DYRK1A = target: T8, DYRK1A (Homo sapiens, UniProt Q13627)
T8 construct: purchased Carna Biosciences
Procedure, shortened: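 With ATP concentrations near the respective Km, a 10-point titration of each compound was run. Percent inhibition values were fitted (four-parameter logistic) to determine IC50.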

TSSK1 = target: T9, TSSK1 (Homo sapiens, UniProt Q9BXA7)
T9 construct: purchased Carna Biosciences
T9 sequence (Q9BXA7 whole entry): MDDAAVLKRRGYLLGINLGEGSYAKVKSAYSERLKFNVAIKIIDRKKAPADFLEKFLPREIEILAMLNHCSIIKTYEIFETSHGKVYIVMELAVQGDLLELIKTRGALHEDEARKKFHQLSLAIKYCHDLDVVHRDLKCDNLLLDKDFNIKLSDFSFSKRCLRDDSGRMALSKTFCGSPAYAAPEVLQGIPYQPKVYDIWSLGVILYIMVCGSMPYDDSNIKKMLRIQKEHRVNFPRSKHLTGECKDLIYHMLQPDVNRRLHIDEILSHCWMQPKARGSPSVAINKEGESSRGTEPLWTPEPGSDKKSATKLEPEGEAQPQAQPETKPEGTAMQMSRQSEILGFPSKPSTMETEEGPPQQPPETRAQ
Procedure, shortened: as §1

TRKC = target: T10, TRKC (Homo sapiens, UniProt Q16288)
T10 construct: purchased Carna Biosciences
Procedure, shortened: as §1

PYK2 = target: T11, PYK2 (Homo sapiens, UniProt Q14289)
T11 construct: purchased Carna Biosciences
Procedure, shortened: as §1

MAP2K2 = target: T12, MAP2K2 (Homo sapiens, UniProt P36507)
T12 construct: purchased Carna Biosciences
T12 sequence (P36507 whole entry): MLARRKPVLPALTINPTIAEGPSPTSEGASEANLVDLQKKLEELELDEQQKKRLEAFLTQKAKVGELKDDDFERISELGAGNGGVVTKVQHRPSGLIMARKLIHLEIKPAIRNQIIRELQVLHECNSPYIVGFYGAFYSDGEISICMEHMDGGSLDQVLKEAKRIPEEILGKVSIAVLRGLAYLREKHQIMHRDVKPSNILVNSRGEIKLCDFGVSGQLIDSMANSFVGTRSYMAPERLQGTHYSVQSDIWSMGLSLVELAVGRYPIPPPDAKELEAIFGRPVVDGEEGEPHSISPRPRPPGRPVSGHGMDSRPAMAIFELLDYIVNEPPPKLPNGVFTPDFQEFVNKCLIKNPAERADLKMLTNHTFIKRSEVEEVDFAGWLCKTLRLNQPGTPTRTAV
Procedure, shortened: as §1

DYRK2 = target: T13, DYRK2 (Homo sapiens, UniProt Q92630)
T13 construct: purchased Carna Biosciences
Procedure, shortened: as §1

MAP3K3 = target: T14, MAP3K3 (Homo sapiens, UniProt Q99759)
T14 construct: purchased Carna Biosciences
Procedure, shortened: as §1

ABL[T315I] = target: T15, ABL[T315I] (Homo sapiens, UniProt P00519, T315I)
T15 construct: purchased Carna Biosciences
Procedure, shortened: as §1

PKD1 = target: T16, PKD1 (Homo sapiens, UniProt Q15139)
T16 construct: purchased Carna Biosciences
Procedure, shortened: as §2

skMLCK = target: T17, skMLCK (Homo sapiens, UniProt Q9H1R3)
T17 construct: purchased Carna Biosciences
Procedure, shortened: as §1

JNK2 = target: T18, JNK2 (Homo sapiens, UniProt P45984)
T18 construct: purchased Carna Biosciences
Procedure, shortened: as §2

MAP2K1 = target: T19, MAP2K1 (Homo sapiens, UniProt Q02750)
T19 construct: purchased Carna Biosciences
Procedure, shortened: as §1

PAK1 = target: T20, PAK1 (Homo sapiens, UniProt Q13153)
T20 construct: purchased Carna Biosciences
Procedure, shortened: as §1

CTK = target: T21, CTK (Homo sapiens, UniProt P42679)
T21 construct: purchased Carna Biosciences
Procedure, shortened: as §1

JAK3 = target: T22, JAK3 (Homo sapiens, UniProt P52333)
T22 construct: purchased Carna Biosciences
T22 sequence (P52333 whole entry): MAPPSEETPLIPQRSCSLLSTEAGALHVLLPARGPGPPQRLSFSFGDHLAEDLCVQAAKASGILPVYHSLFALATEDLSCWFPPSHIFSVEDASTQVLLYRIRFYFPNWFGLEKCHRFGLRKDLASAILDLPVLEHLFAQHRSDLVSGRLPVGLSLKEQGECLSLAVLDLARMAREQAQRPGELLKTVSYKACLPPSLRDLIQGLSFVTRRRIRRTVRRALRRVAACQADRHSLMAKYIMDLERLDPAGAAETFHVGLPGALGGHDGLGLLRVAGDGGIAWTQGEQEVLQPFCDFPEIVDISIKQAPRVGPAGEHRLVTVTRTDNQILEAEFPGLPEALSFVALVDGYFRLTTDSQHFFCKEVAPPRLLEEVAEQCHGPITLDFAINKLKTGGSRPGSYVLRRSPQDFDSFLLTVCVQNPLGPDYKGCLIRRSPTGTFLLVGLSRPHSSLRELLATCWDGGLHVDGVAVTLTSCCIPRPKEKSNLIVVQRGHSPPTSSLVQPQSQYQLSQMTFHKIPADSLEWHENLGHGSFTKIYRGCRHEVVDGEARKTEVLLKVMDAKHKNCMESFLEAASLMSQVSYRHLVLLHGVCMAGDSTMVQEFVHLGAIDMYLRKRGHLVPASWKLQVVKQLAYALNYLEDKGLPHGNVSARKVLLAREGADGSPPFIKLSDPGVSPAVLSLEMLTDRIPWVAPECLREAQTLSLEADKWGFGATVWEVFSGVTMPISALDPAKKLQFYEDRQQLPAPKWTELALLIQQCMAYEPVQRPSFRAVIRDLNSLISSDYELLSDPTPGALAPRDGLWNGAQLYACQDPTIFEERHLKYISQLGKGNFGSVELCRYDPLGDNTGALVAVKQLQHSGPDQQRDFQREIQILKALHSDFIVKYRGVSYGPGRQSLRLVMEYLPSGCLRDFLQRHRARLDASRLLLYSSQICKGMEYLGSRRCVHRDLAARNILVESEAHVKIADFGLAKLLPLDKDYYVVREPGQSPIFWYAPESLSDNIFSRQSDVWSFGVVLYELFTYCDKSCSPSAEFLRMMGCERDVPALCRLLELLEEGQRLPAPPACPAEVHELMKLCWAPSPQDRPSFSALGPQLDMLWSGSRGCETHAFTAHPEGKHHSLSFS
Procedure, shortened: as §1

BRK = target: T23, BRK (Homo sapiens, UniProt Q13882)
T23 construct: purchased Carna Biosciences
Procedure, shortened: as §1

EphA7 = target: T24, EphA7 (Homo sapiens, UniProt Q15375)
T24 construct: purchased Carna Biosciences
Procedure, shortened: as §2

KIT[V560G] = target: T25, KIT[V560G] (Homo sapiens, UniProt P10721, V560G)
T25 construct: purchased Carna Biosciences
Procedure, shortened: as §2

PAK6 = target: T26, PAK6 (Homo sapiens, UniProt Q9NQU5)
T26 construct: purchased Carna Biosciences
Procedure, shortened: as §1

AMPKa1 = target: T27, AMPKa1 (Homo sapiens, UniProt Q13131)
T27 construct: purchased Carna Biosciences
Procedure, shortened: as §1

TNK1 = target: T28, TNK1 (Homo sapiens, UniProt Q13470)
T28 construct: purchased Carna Biosciences
Procedure, shortened: as §1

PKD3 = target: T29, PKD3 (Homo sapiens, UniProt O94806)
T29 construct: purchased Carna Biosciences
Procedure, shortened: as §1

MAP3K1 = target: T30, MAP3K1 (Homo sapiens, UniProt Q13233)
T30 construct: purchased Carna Biosciences
Procedure, shortened: as §1

SGK3 = target: T31, SGK3 (Homo sapiens, UniProt Q96BR1)
T31 construct: purchased Carna Biosciences
Procedure, shortened: as §1

p38b = target: T32, p38b (Homo sapiens, UniProt Q15759)
T32 construct: purchased Carna Biosciences
Procedure, shortened: as §1

MST2 = target: T33, MST2 (Homo sapiens, UniProt Q13188)
T33 construct: purchased Carna Biosciences
T33 sequence (Q13188 whole entry): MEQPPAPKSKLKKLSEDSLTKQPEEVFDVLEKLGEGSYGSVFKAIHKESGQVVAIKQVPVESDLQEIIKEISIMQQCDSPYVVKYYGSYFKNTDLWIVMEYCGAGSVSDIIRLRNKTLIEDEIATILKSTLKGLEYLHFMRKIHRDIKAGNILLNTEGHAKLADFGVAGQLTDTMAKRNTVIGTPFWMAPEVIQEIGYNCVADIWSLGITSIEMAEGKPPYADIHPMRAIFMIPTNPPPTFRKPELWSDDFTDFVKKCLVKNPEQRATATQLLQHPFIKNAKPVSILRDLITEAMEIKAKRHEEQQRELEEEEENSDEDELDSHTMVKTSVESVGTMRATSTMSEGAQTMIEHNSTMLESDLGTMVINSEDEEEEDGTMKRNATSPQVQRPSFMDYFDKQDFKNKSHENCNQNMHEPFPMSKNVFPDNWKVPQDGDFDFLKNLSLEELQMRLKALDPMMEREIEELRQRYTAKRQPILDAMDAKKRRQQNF
Procedure, shortened: as §1

RSK4 = target: T34, RSK4 (Homo sapiens, UniProt Q9UK32)
T34 construct: purchased Carna Biosciences
Procedure, shortened: as §1

FRK = target: T35, FRK (Homo sapiens, UniProt P42685)
T35 construct: purchased Carna Biosciences
Procedure, shortened: as §1

NEK2 = target: T36, NEK2 (Homo sapiens, UniProt P51955)
T36 construct: purchased Carna Biosciences
Procedure, shortened: as §1

WNK1 = target: T37, WNK1 (Homo sapiens, UniProt Q9H4A3)
T37 construct: purchased Carna Biosciences
Procedure, shortened: as §1

p38a = target: T38, p38a (Homo sapiens, UniProt Q16539)
T38 construct: purchased Carna Biosciences
T38 sequence (Q16539 whole entry): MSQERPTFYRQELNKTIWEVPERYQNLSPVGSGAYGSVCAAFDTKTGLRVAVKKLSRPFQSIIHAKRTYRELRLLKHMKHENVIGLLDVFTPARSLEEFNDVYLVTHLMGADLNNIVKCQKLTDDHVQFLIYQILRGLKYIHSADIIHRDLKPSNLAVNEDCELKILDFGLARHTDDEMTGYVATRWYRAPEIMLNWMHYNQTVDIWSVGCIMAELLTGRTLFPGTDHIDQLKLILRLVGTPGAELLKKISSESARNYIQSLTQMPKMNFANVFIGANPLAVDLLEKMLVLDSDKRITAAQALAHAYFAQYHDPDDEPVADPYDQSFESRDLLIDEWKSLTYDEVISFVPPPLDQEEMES
Procedure, shortened: as §1

BLK = target: T39, BLK (Homo sapiens, UniProt P51451)
T39 construct: purchased Carna Biosciences
Procedure, shortened: as §1

ACK = target: T40, ACK (Homo sapiens, UniProt Q07912)
T40 construct: purchased Carna Biosciences
Procedure, shortened: as §1

SRPK2 = target: T41, SRPK2 (Homo sapiens, UniProt P78362)
T41 construct: purchased Carna Biosciences
Procedure, shortened: as §2

FLT4 = target: T42, FLT4 (Homo sapiens, UniProt P35916)
T42 construct: purchased Carna Biosciences
T42 sequence (P35916 25-1363): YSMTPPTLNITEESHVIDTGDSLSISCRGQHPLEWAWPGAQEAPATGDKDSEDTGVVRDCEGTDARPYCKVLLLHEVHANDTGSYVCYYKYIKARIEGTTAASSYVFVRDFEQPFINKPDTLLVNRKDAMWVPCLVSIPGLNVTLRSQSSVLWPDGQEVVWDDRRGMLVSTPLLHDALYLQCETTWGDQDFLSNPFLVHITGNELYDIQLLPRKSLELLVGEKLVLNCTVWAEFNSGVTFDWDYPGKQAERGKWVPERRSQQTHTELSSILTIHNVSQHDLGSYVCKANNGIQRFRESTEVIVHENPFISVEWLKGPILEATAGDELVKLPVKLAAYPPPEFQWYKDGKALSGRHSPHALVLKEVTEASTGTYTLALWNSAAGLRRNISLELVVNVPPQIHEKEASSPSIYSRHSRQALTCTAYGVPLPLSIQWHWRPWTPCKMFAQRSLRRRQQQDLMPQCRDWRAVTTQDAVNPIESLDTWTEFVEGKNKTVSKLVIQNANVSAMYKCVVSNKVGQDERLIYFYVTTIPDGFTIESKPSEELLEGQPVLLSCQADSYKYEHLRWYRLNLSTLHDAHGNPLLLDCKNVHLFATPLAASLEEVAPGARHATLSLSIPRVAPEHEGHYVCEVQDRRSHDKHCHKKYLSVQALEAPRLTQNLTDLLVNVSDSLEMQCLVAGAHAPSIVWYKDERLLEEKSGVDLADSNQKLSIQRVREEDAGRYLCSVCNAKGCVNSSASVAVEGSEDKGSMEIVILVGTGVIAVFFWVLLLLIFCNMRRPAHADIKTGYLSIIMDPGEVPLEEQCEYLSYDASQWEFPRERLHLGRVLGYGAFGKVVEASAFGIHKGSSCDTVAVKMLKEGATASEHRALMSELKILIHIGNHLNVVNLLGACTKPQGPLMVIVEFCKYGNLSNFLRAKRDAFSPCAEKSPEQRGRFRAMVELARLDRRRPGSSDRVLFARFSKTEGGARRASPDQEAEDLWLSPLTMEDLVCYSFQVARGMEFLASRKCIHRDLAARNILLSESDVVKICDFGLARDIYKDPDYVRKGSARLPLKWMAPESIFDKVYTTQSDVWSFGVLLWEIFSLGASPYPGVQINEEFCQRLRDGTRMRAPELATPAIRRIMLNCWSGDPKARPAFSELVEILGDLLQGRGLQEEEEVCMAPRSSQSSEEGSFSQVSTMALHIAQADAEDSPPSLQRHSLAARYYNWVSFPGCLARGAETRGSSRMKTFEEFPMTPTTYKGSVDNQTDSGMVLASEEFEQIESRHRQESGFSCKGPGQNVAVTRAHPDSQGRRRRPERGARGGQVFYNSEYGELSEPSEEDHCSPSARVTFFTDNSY
Procedure, shortened: as §1

p38g = target: T43, p38g (Homo sapiens, UniProt P53778)
T43 construct: purchased Carna Biosciences
T43 sequence (P53778 whole entry): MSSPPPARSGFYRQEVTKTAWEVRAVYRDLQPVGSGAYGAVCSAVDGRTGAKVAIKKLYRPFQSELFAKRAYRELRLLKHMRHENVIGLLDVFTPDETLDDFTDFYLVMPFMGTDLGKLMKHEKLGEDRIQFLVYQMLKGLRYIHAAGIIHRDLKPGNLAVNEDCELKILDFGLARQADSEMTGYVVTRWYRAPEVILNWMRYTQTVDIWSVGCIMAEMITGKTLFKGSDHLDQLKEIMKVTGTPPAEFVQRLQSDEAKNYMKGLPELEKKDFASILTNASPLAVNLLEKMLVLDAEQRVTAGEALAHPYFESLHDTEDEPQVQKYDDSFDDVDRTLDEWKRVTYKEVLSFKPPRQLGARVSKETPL
Procedure, shortened: as §1

With `CC[C@H](Nc1nc(NCc2cnc(C)cc2C)c2ncn(C(C)C)c2n1)[C@@H](C)O` [Fadraciclib, 2-pentanol, 3-[[6-[[(4,6-dimethyl-3-pyridinyl)methyl]amino]-9-(1-methylethyl)-9Hpurin-2-yl]amino]-, (2R,3S)] the inhibition at 1 µM (TTK) was 25.3 ± 4.5%, the inhibition at 1 µM (PAK2) was -2.9% and the inhibition at 1 µM (CDK3) was 95.9%. The inhibition at 1 µM (PKR) was 1.1%, the inhibition at 1 µM (EphA8) was 4.2 ± 0.2% and the inhibition at 1 µM (EphA1) was 5.1%. The inhibition at 1 µM (PKCb2) was -14.3 ± 0.1%, the inhibition at 1 µM (DYRK1A) was 5.5 ± 0.7% and the inhibition at 1 µM (TSSK1) was 16 ± 0.5%. The inhibition at 1 µM (TRKC) was 7.2 ± 0.3%, the inhibition at 1 µM (PYK2) was 11.7 ± 0.2% and the inhibition at 1 µM (MAP2K2) was 4.1%. It also gave an inhibition at 1 µM (DYRK2) of -1.8 ± 0.1%, an inhibition at 1 µM (MAP3K3) of -2.6 ± 0.1% and an inhibition at 1 µM (ABL[T315I]) of -13 ± 0.1%. For the same compound, the inhibition at 1 µM (PKD1) was 12.4 ± 0.5%, the inhibition at 1 µM (skMLCK) was -9.8 ± 1.1% and the inhibition at 1 µM (JNK2) was -19.3 ± 2.2%. For the same compound, the inhibition at 1 µM (MAP2K1) was -6.8 ± 0.1%, the inhibition at 1 µM (PAK1) was -5.8 ± 0.2% and the inhibition at 1 µM (CTK) was 3.4 ± 0.2%. It also gave an inhibition at 1 µM (JAK3) of -9.5%, an inhibition at 1 µM (BRK) of 2.4 ± 0.1% and an inhibition at 1 µM (EphA7) of 6 ± 0.3%. For the same compound, the inhibition at 1 µM (KIT[V560G]) was 2.5 ± 0.1%, the inhibition at 1 µM (PAK6) was -5.4% and the inhibition at 1 µM (AMPKa1) was -3.8%. It also gave an inhibition at 1 µM (TNK1) of -0.2 ± 0.2%, an inhibition at 1 µM (PKD3) of -1.4% and an inhibition at 1 µM (MAP3K1) of -6.6 ± 0.1%. For the same compound, the inhibition at 1 µM (SGK3) was 6.2 ± 0.1%, the inhibition at 1 µM (p38b) was -19 ± 0.2% and the inhibition at 1 µM (MST2) was -1.5%. It also gave an inhibition at 1 µM (RSK4) of 6 ± 0.2%, an inhibition at 1 µM (FRK) of 3.6% and an inhibition at 1 µM (NEK2) of -18.1 ± 0.6%. It also gave an inhibition at 1 µM (WNK1) of -3.3%, an inhibition at 1 µM (p38a) of -13.3 ± 0.3% and an inhibition at 1 µM (BLK) of -3.6%. The inhibition at 1 µM (ACK) was -0.7%, the inhibition at 1 µM (SRPK2) was -3.8 ± 0.1% and the inhibition at 1 µM (FLT4) was 6.3 ± 0.2%. The inhibition at 1 µM (p38g) was -0.6%.
